Laboratory results reported in patent US6525001B1, “Substituted pyrimidine and pyridine herbicides” (Mid-American Commercialization Corporation, priority 1997, dated 2003).

How the values were obtained:
Experiment in all cases: Test B pre-/postemergence
Assay type in all cases: in vivo
Design in all cases: key: 0 is no effect; 10 is complete control
[1] = system: giant foxtail (Setaria faberii)
Outline: (§1)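 Seeds were planted and sprayed preemergence, while plants at 2 to 18 cm (1- to 4-leaf stage) were sprayed postemergence at the same time, with test chemical in a non-phytotoxic solvent mixture containing surfactant. After twelve to sixteen days in a greenhouse, injury was rated visually against untreated controls on a 0–10 scale.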

[2] = system: velvetleaf (Abutilon theophrasti)
Outline: as §1

[3] = system: corn (Zea mays)
Outline: as §1

[4] = system: blackgrass (Alopecurus myosuroides)
Outline: as §1

[5] = system: momingglory (Ipomoea hederacea)
Outline: as §1

[6] = system: sugar beet (Beta vulgaris)
Outline: as §1

[7] = system: bedstraw (Galium aparine)
Outline: as §1

[8] = system: purple nutsedge (Cyperus rotundus)
Outline: as §1

[9] = system: wheat (Triticum aestivum)
Outline: as §1

[10] = system: crabgrass (Digitaria sanguinalis)
Outline: as §1

[11] = system: pigweed (Amaranthus retroflexus)
Outline: as §1

[12] = system: cocklebur (Xanthium strumarium)
Outline: as §1

[13] = system: wild oat (Avena fatua)
Outline: as §1

Cc1cnc(-n2ccc(C(F)(F)F)n2)nc1Cc1cccc(C(F)(F)F)c1 [Example 2, 5-methyl-4-[[3-(trifluoromethyl)phenyl]methyl]-2-[3-(trifluoromethyl)-1H-pyrazol-1-yl]pyrimidine]
Plant response rating, Giant foxtail ([1]; Rate 62 g/ha, Postemergence): 7
Giant foxtail plant response rating ([1]; Rate 62 g/ha, Preemergence): 10
Plant response rating, Giant foxtail ([1]; Rate 125 g/ha, Postemergence): 9
Giant foxtail plant response rating ([1]; Rate 125 g/ha, Preemergence): 10
Plant response rating, Giant foxtail ([1]; Rate 250 g/ha, Postemergence): 9
Plant response rating, Giant foxtail ([1]; Rate 250 g/ha, Preemergence): 10
Plant response rating, Giant foxtail ([1]; Rate 500 g/ha, Postemergence): 10
Plant response rating, Giant foxtail ([1]; Rate 500 g/ha, Preemergence): 10
Plant response rating, Velvetleaf ([2]; Rate 62 g/ha, Postemergence): 8
Velvetleaf plant response rating ([2]; Rate 62 g/ha, Preemergence): 6
Plant response rating, Velvetleaf ([2]; Rate 125 g/ha, Postemergence): 9
Velvetleaf plant response rating ([2]; Rate 125 g/ha, Preemergence): 6
Plant response rating, Velvetleaf ([2]; Rate 250 g/ha, Postemergence): 9
Plant response rating, Velvetleaf ([2]; Rate 250 g/ha, Preemergence): 8
Plant response rating, Velvetleaf ([2]; Rate 500 g/ha, Postemergence): 9
Plant response rating, Velvetleaf ([2]; Rate 500 g/ha, Preemergence): 10
Plant response rating, Corn ([3]; Rate 62 g/ha, Postemergence): 2
Corn plant response rating ([3]; Rate 62 g/ha, Preemergence): 0
Plant response rating, Corn ([3]; Rate 125 g/ha, Postemergence): 4
Corn plant response rating ([3]; Rate 125 g/ha, Preemergence): 1
Plant response rating, Corn ([3]; Rate 250 g/ha, Postemergence): 6
Plant response rating, Corn ([3]; Rate 250 g/ha, Preemergence): 1
Plant response rating, Corn ([3]; Rate 500 g/ha, Postemergence): 7
Plant response rating, Corn ([3]; Rate 500 g/ha, Preemergence): 2
Plant response rating, Blackgrass ([4]; Rate 62 g/ha, Postemergence): 3
Blackgrass plant response rating ([4]; Rate 62 g/ha, Preemergence): 3
Plant response rating, Blackgrass ([4]; Rate 125 g/ha, Postemergence): 6
Blackgrass plant response rating ([4]; Rate 125 g/ha, Preemergence): 7
Plant response rating, Blackgrass ([4]; Rate 250 g/ha, Postemergence): 7
Plant response rating, Blackgrass ([4]; Rate 250 g/ha, Preemergence): 10
Plant response rating, Blackgrass ([4]; Rate 500 g/ha, Postemergence): 9
Plant response rating, Blackgrass ([4]; Rate 500 g/ha, Preemergence): 10
Plant response rating, Morningglory ([5]; Rate 62 g/ha, Postemergence): 8
Morningglory plant response rating ([5]; Rate 62 g/ha, Preemergence): 7
Plant response rating, Morningglory ([5]; Rate 125 g/ha, Postemergence): 9
Morningglory plant response rating ([5]; Rate 125 g/ha, Preemergence): 9
Plant response rating, Morningglory ([5]; Rate 250 g/ha, Postemergence): 9
Plant response rating, Morningglory ([5]; Rate 250 g/ha, Preemergence): 10
Plant response rating, Morningglory ([5]; Rate 500 g/ha, Postemergence): 9
Plant response rating, Morningglory ([5]; Rate 500 g/ha, Preemergence): 10
Plant response rating, Sugarbeets ([6]; Rate 62 g/ha, Postemergence): 9
Sugarbeets plant response rating ([6]; Rate 62 g/ha, Preemergence): 10
Plant response rating, Sugarbeets ([6]; Rate 125 g/ha, Postemergence): 9
Sugarbeets plant response rating ([6]; Rate 125 g/ha, Preemergence): 10
Plant response rating, Sugarbeets ([6]; Rate 250 g/ha, Postemergence): 9
Plant response rating, Sugarbeets ([6]; Rate 250 g/ha, Preemergence): 10
Plant response rating, Sugarbeets ([6]; Rate 500 g/ha, Postemergence): 9
Plant response rating, Sugarbeets ([6]; Rate 500 g/ha, Preemergence): 10
Plant response rating, Bedstraw ([7]; Rate 62 g/ha, Postemergence): 9
Bedstraw plant response rating ([7]; Rate 62 g/ha, Preemergence): 10
Plant response rating, Bedstraw ([7]; Rate 125 g/ha, Postemergence): 9
Bedstraw plant response rating ([7]; Rate 125 g/ha, Preemergence): 10
Plant response rating, Bedstraw ([7]; Rate 250 g/ha, Postemergence): 9
Plant response rating, Bedstraw ([7]; Rate 250 g/ha, Preemergence): 10
Plant response rating, Bedstraw ([7]; Rate 500 g/ha, Postemergence): 9
Plant response rating, Bedstraw ([7]; Rate 500 g/ha, Preemergence): 10
Plant response rating, Nutsedge ([8]; Rate 62 g/ha, Postemergence): 0
Nutsedge plant response rating ([8]; Rate 62 g/ha, Preemergence): 0
Plant response rating, Nutsedge ([8]; Rate 125 g/ha, Postemergence): 0
Nutsedge plant response rating ([8]; Rate 125 g/ha, Preemergence): 0
Plant response rating, Nutsedge ([8]; Rate 250 g/ha, Preemergence): 0
Plant response rating, Nutsedge ([8]; Rate 500 g/ha, Postemergence): 2
Plant response rating, Nutsedge ([8]; Rate 500 g/ha, Preemergence): 0
Plant response rating, Wheat ([9]; Rate 62 g/ha, Postemergence): 2
Wheat plant response rating ([9]; Rate 62 g/ha, Preemergence): 1
Plant response rating, Wheat ([9]; Rate 125 g/ha, Postemergence): 2
Wheat plant response rating ([9]; Rate 125 g/ha, Preemergence): 2
Plant response rating, Wheat ([9]; Rate 250 g/ha, Postemergence): 3
Plant response rating, Wheat ([9]; Rate 250 g/ha, Preemergence): 3
Plant response rating, Wheat ([9]; Rate 500 g/ha, Postemergence): 5
Plant response rating, Wheat ([9]; Rate 500 g/ha, Preemergence): 3
Plant response rating, Crabgrass ([10]; Rate 62 g/ha, Postemergence): 8
Crabgrass plant response rating ([10]; Rate 62 g/ha, Preemergence): 9
Plant response rating, Crabgrass ([10]; Rate 125 g/ha, Postemergence): 9
Crabgrass plant response rating ([10]; Rate 125 g/ha, Preemergence): 10
Plant response rating, Crabgrass ([10]; Rate 250 g/ha, Postemergence): 9
Plant response rating, Crabgrass ([10]; Rate 250 g/ha, Preemergence): 10
Plant response rating, Crabgrass ([10]; Rate 500 g/ha, Postemergence): 10
Plant response rating, Crabgrass ([10]; Rate 500 g/ha, Preemergence): 10
Plant response rating, Redroot pigweed ([11]; Rate 62 g/ha, Postemergence): 7
Redroot pigweed plant response rating ([11]; Rate 62 g/ha, Preemergence): 10
Plant response rating, Redroot pigweed ([11]; Rate 125 g/ha, Postemergence): 9
Redroot pigweed plant response rating ([11]; Rate 125 g/ha, Preemergence): 10
Plant response rating, Redroot pigweed ([11]; Rate 250 g/ha, Postemergence): 9
Plant response rating, Redroot pigweed ([11]; Rate 250 g/ha, Preemergence): 10
Plant response rating, Redroot pigweed ([11]; Rate 500 g/ha, Postemergence): 9
Plant response rating, Redroot pigweed ([11]; Rate 500 g/ha, Preemergence): 10
Plant response rating, Cocklebur ([12]; Rate 62 g/ha, Postemergence): 8
Cocklebur plant response rating ([12]; Rate 62 g/ha, Preemergence): 0
Plant response rating, Cocklebur ([12]; Rate 125 g/ha, Postemergence): 8
Cocklebur plant response rating ([12]; Rate 125 g/ha, Preemergence): 1
Plant response rating, Cocklebur ([12]; Rate 250 g/ha, Postemergence): 8
Plant response rating, Cocklebur ([12]; Rate 250 g/ha, Preemergence): 1
Plant response rating, Cocklebur ([12]; Rate 500 g/ha, Postemergence): 9
Plant response rating, Cocklebur ([12]; Rate 500 g/ha, Preemergence): 3
Plant response rating, Wild oats ([13]; Rate 62 g/ha, Postemergence): 3
Wild oats plant response rating ([13]; Rate 62 g/ha, Preemergence): 6
Plant response rating, Wild oats ([13]; Rate 125 g/ha, Postemergence): 3
Wild oats plant response rating ([13]; Rate 125 g/ha, Preemergence): 9
Plant response rating, Wild oats ([13]; Rate 250 g/ha, Postemergence): 6
Plant response rating, Wild oats ([13]; Rate 250 g/ha, Preemergence): 9
Plant response rating, Wild oats ([13]; Rate 500 g/ha, Postemergence): 7
Plant response rating, Wild oats ([13]; Rate 500 g/ha, Preemergence): 10
